Test results from patent US10723711B2, “1,1,1-trifluoro-3-hydroxypropan-2-yl carbamate derivatives and 1,1,1-trifluoro-4-hydroxybutan-2-yl carbamate derivatives as MAGL inhibitors” (PFIZER INC., priority 2015, dated 2020).
pIC50: −log10 of the molar value. Where two headings read alike, the source gives them in different places.

Legend:
[1] = target: T1, human recombinant Monoacylglycerol Lipase (Homo sapiens, UniProt Q99685); assay: MAGL inhibition enzymatic assay, fluorogenic substrate 7-HCA, IC50 at T=0 min or after 30 minute incubation (T=30 min); assay type: biochemical; details: geometric mean of 2-4 determinations unless otherwise indicated
T1 sequence (Q99685 1-303): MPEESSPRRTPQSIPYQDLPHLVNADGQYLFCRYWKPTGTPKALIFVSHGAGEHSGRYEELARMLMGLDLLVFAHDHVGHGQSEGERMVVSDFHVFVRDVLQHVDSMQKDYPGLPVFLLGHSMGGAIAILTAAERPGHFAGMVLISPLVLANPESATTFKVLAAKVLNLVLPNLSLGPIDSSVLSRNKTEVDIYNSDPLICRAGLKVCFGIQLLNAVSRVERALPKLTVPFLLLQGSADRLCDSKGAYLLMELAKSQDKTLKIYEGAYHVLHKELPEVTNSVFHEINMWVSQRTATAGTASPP
Procedure: An equal volume of 7-HCA in assay buffer with 10% DMSO was added either immediately (T=0 min) or after a 30 minute incubation (T=30 min) to initiate the reaction. […] After these dilutions, the final concentration of the test compound ranged from 3 μM to 0.03 nM. […] IC50 values were generated based on a four parameter fit model using ABASE software from IDBS.

[2] = Prodrug in vivo pharmacokinetics in rats after intravenous administration (LC-MS-MS of prodrug and parent); details: for Vd: Vdss
Procedure: (§1) Pharmacokinetic parameters derived from the plasma analytical data were determined using Watson LIMS 7.2.003 (Thermo Fisher Scientific, Waltham, Mass.).

[3] = Prodrug in vivo pharmacokinetics in dogs after intravenous administration (LC-MS-MS of prodrug and parent); details: for % AUC Extrap / AUC Extrap / Co / Rate Constant / T½ / AUC / CL / Vdss: Beagle dogs; for clearance / Vd: beagle, dog, in vivo, iv, 0.7 mg/kg; for clearance: CL; for Vd: Vdss
Procedure: as §1

[4] = T = 0 min (substrate added immediately), read-out: MAGL (T = 0 min) IC50
[5] = T = 30 min (30 minute incubation), read-out: MAGL (T = 30 min) IC50
[6] = Example 31 in plasma, Wistar Hann rats, IV Example 31 at 1.48 mg/kg, Mean
[7] = Example 31 in plasma, Wistar Hann rats, IV Example 31 at 1.48 mg/kg, Rat 01
[8] = Example 31 in plasma, Wistar Hann rats, IV Example 31 at 1.48 mg/kg, Rat 02
[9] = Example 31 in plasma, IV Example 31 at 0.7 mg/kg, Dog 01
[10] = Example 31 in plasma, IV Example 31 at 0.7 mg/kg, Dog 02
[11] = Example 31 in plasma, IV Example 31 at 0.7 mg/kg, Mean
[12] = Example 32 in plasma, rats, IV Example 32 (2 mg/kg active), Mean
[13] = Example 32 in plasma, rats, IV Example 32 (2 mg/kg active), Rat 03
[14] = Example 32 in plasma, rats, IV Example 32 (2 mg/kg active), Rat 04
[15] = Example 32 in plasma, IV Example 32 at 1 mg/kg, Dog 03
[16] = Example 32 in plasma, IV Example 32 at 1 mg/kg, Dog 04
[17] = Example 32 in plasma, IV Example 32 at 1 mg/kg, Mean

For O=C(O[C@H](COP(=O)([O-])[O-])C(F)(F)F)N1CCC2(CC1)C[C@@H](NS(=O)(=O)c1ccccc1)CO2.[Na+].[Na+] [Example 31, (2R)-3,3,3-Trifluoro-2-[({(3R)-3-[(phenylsulfonyl)amino]-1-oxa-8-azaspiro[4.5]dec-8-yl}carbonyl)oxy]propyl phosphate, disodium salt], the pIC50 [1, 4] was < 5.52, the pIC50 [1, 5] was < 5.52 and the “% AUC Extrap” value [2, 6] was 1.41%. For the same compound, the AUC [2, 6] was 43.0 ng·h/mL, the “AUC Extrap” value [2, 6] was 43.6 ng·h/mL and the Co [2, 6] was 476 ng/mL. For the same compound, the “Rate Constant” value [2, 6] was 12.1 h⁻¹, the T½ [2, 6] was 3.75 min and the “% AUC Extrap” value [2, 7] was 1.19%. For the same compound, the “AUC Extrap” value [2, 7] was 43.6 ng·h/mL, the Co [2, 7] was 399 ng/mL and the “Rate Constant” value [2, 7] was 8.61 h⁻¹. The T½ [2, 7] was 4.83 min, the AUC ([2]; Example 31 in plasma, Wistar Hann rats, IV Example 31 at 1.48 mg/kg, Rat 01, AUC interval 0-0.5 Hours) was 43.1 ng·h/mL and the “% AUC Extrap” value [2, 8] was 1.62%. For the same compound, the “AUC Extrap” value [2, 8] was 43.6 ng·h/mL, the Co [2, 8] was 553 ng/mL and the “Rate Constant” value [2, 8] was 15.6 h⁻¹. It also gave a T½ [2, 8] of 2.67 min, an AUC ([2]; Example 31 in plasma, Wistar Hann rats, IV Example 31 at 1.48 mg/kg, Rat 02, AUC interval 0-0.25 Hours) of 42.9 ng·h/mL and a clearance ([2]; Wistar Hann, rat, in vivo, iv, 1.48 mg/kg) of 566 mL/min/kg. For the same compound, the Vd ([2]; Wistar Hann, rat, in vivo, iv, 1.48 mg/kg, Example 31 in plasma, Wistar Hann rats, IV Example 31 at 1.48 mg/kg, Mean) was 2.23 L/kg, the Vd ([2]; Wistar Hann, rat, in vivo, iv, 1.48 mg/kg, Example 31 in plasma, Wistar Hann rats, IV Example 31 at 1.48 mg/kg, Rat 01) was 2.86 L/kg and the Vd ([2]; Wistar Hann, rat, in vivo, iv, 1.48 mg/kg, Example 31 in plasma, Wistar Hann rats, IV Example 31 at 1.48 mg/kg, Rat 02) was 1.59 L/kg. The “% AUC Extrap” value [3, 9] was 0.181%, the “AUC Extrap” value [3, 9] was 108 ng·h/mL and the Co [3, 9] was 1630 ng/mL. The “Rate Constant” value [3, 9] was 11.3 h⁻¹, the T½ [3, 9] was 3.68 min and the AUC ([3]; Example 31 in plasma, IV Example 31 at 0.7 mg/kg, Dog 01, AUC interval 0-0.5 Hours) was 108 ng·h/mL. For the same compound, the “% AUC Extrap” value [3, 10] was 0.103%, the “AUC Extrap” value [3, 10] was 53.9 ng·h/mL and the Co [3, 10] was 821 ng/mL. For the same compound, the “Rate Constant” value [3, 10] was 11.2 h⁻¹, the T½ [3, 10] was 3.72 min and the AUC ([3]; Example 31 in plasma, IV Example 31 at 0.7 mg/kg, Dog 02, AUC interval 0-0.5 Hours) was 53.8 ng·h/mL. The “% AUC Extrap” value [3, 11] was 0.142%, the AUC [3, 11] was 80.9 ng·h/mL and the “AUC Extrap” value [3, 11] was 81.0 ng·h/mL. The Co [3, 11] was 1230 ng/mL, the “Rate Constant” value [3, 11] was 11.3 h⁻¹ and the T½ [3, 11] was 3.7 min. For the same compound, the clearance [3, 9] was 108 mL/min/kg, the clearance [3, 10] was 216 mL/min/kg and the clearance [3, 11] was 162 mL/min/kg. It also gave a Vd [3, 9] of 0.235 L/kg, a Vd [3, 10] of 0.465 L/kg and a Vd [3, 11] of 0.35 L/kg.
For O=C(O[C@H](COP(=O)([O-])[O-])C(F)(F)F)N1CCC2(CC1)CN(S(=O)(=O)c1ccc(F)cc1)CCO2.[Na+].[Na+] [Example 32, (2R)-3,3,3-Trifluoro-2-[({4-[(4-fluorophenyl)sulfonyl]-1-oxa-4,9-diazaspiro[5.5]undec-9-yl}carbonyl)oxy]propyl phosphate, disodium salt], the pIC50 [1, 4] was < 5.52, the pIC50 [1, 5] was < 5.52 and the “% AUC Extrap” value [2, 12] was 0.532%. The AUC [2, 12] was 159 ng·h/mL, the “AUC Extrap” value [2, 12] was 160 ng·h/mL and the CL [2, 12] was 215 mL/min/kg. For the same compound, the Co [2, 12] was 3760 ng/mL, the “Rate Constant” value [2, 12] was 5.94 h⁻¹ and the T½ [2, 12] was 7.32 min. The Vdss [2, 12] was 0.597 L/kg, the “% AUC Extrap” value [2, 13] was 0.232% and the “AUC Extrap” value [2, 13] was 185 ng·h/mL. The CL [2, 13] was 180 mL/min/kg, the Co [2, 13] was 4480 ng/mL and the “Rate Constant” value [2, 13] was 4.73 h⁻¹. It also gave a T½ [2, 13] of 8.82 min, a Vdss [2, 13] of 0.515 L/kg and an AUC ([2]; Example 32 in plasma, rats, IV Example 32 (2 mg/kg active), Rat 03, AUC interval 0-1 Hours) of 185 ng·h/mL. For the same compound, the “% AUC Extrap” value [2, 14] was 0.832%, the “AUC Extrap” value [2, 14] was 134 ng·h/mL and the CL [2, 14] was 249 mL/min/kg. The Co [2, 14] was 3040 ng/mL, the “Rate Constant” value [2, 14] was 7.14 h⁻¹ and the T½ [2, 14] was 5.83 min. For the same compound, the Vdss [2, 14] was 0.679 L/kg, the AUC ([2]; Example 32 in plasma, rats, IV Example 32 (2 mg/kg active), Rat 04, AUC interval 0-0.5 Hours) was 133 ng·h/mL and the “% AUC Extrap” value [3, 15] was 0.0443%. For the same compound, the “AUC Extrap” value [3, 15] was 146 ng·h/mL, the CL [3, 15] was 114 mL/min/kg and the Co [3, 15] was 1220 ng/mL. The “Rate Constant” value [3, 15] was 5.08 h⁻¹, the T½ [3, 15] was 8.16 min and the Vdss [3, 15] was 0.751 L/kg. For the same compound, the AUC ([3]; Example 32 in plasma, IV Example 32 at 1 mg/kg, Dog 03, AUC interval 0-1 Hours) was 146 ng·h/mL, the “% AUC Extrap” value [3, 16] was 0.150% and the “AUC Extrap” value [3, 16] was 229 ng·h/mL. For the same compound, the CL [3, 16] was 72.8 mL/min/kg, the Co [3, 16] was 2370 ng/mL and the “Rate Constant” value [3, 16] was 5.06 h⁻¹. It also gave a T½ [3, 16] of 8.22 min, a Vdss [3, 16] of 0.357 L/kg and an AUC ([3]; Example 32 in plasma, IV Example 32 at 1 mg/kg, Dog 04, AUC interval 0-1 Hours) of 229 ng·h/mL. The “% AUC Extrap” value [3, 17] was 0.0972%, the AUC [3, 17] was 188 ng·h/mL and the “AUC Extrap” value [3, 17] was 188 ng·h/mL. The CL [3, 17] was 93.4 mL/min/kg, the Co [3, 17] was 1800 ng/mL and the “Rate Constant” value [3, 17] was 5.07 h⁻¹. It also gave a T½ [3, 17] of 8.22 min and a Vdss [3, 17] of 0.554 L/kg.
